In brackets after ≈: the same amount, converted by molar mass.
Legend:
[1] = test system: 22 Candida spp. and 10 Aspergillus spp.; conditions: all yeasts and moulds tested; judged from high MICs
A. fumigatus = conditions: n=5 strains, 48 hours, prominent growth reduction endpoint
Staphlococcus aureus = conditions: cited from earlier work
C. glabrata = conditions: n=5 strains, 48 hours, prominent growth reduction endpoint
C. tropicalis = conditions: n=5 strains, 48 hours, prominent growth reduction endpoint
C. krusei = conditions: n=5 strains, 48 hours, prominent growth reduction endpoint
fungus and bacteria = conditions: published literature; cited from earlier work
C. parapsilosis = conditions: n=1 strain, 48 hours, prominent growth reduction endpoint
A. niger = conditions: n=5 strains, 48 hours, prominent growth reduction endpoint
C. albicans = conditions: n=5 strains, 48 hours, prominent growth reduction endpoint
C. lusitaniae = conditions: n=1 strain, 48 hours, prominent growth reduction endpoint
Pseudomonas = conditions: cited from earlier work

## O=C(O)c1cn(C2CC2)c2cc(N3CCNCC3)c(F)cc2c1=O [CIPRO, ciprofloxacin]
[1]
  antifungal activity on its own: no antifungal activity on its own

## Clc1ccccc1C(c1ccccc1)(c1ccccc1)n1ccnc1 [CTZ, clotrimazole]
A. fumigatus
  MIC range: 0.25 to 0.5 µg/mL
Staphlococcus aureus
  antibacterial activity: demonstrated antibacterial activity
C. glabrata
  MIC range: 0.25 to 1 µg/mL
C. tropicalis
  MIC range: 0.06 to 2 µg/mL
C. krusei
  MIC range: 0.06 to 0.125 µg/mL
Fungus and bacteria
  Spectrum of Efficacy: Aspergillus fiavus, Aspergilius fumigatus, Blastomyces
C. parapsilosis
  MIC range: 0.06 µg/mL (≈ 0.174 µM)
A. niger
  MIC range: 0.5 to 1 µg/mL
C. albicans
  MIC range: ≦0.015 mcg/ml
C. lusitaniae
  MIC range: ≦0.015 mcg/ml
Pseudomonas
  antibacterial activity: demonstrated antibacterial activity

## C[C@@H]1[C@H](O)[C@@H](C)/C=C/C=C/CC/C=C/C=C/C=C/C=C/C(O[C@H]2O[C@H](C)[C@@H](O)[C@H](N)[C@@H]2O)CC2O[C@](O)(CC(O)C(O)CCC(O)CC(O)CC(O)CC(=O)O[C@H]1C)CC(O)C2C(=O)O (some centres unmarked) [Nystatin, nystatin]
Fungus and bacteria
  Spectrum of Efficacy: primarily fungistatic at low concentrations against biphasic

## Cc1cccc(N(C)C(=S)Oc2ccc3ccccc3c2)c1 [tolnaftate]
Fungus and bacteria
  Spectrum of Efficacy: Fungistatic for dermatophytes and Tinea Versicoior

— US8945061B2, “Otic formulations, methods and devices” (Entrx LLC, priority 2012, dated 2015)
